US12673945B2, “3-((8-((1H-pyrazol-4-yl)amino)imidazo[1,2-a]pyridin-3-yl)ethinyl)-n-phenylbenzamide derivative, method for preparing same, and pharmaceutical composition containing same as active ingredient for prevention or treatment of cancer” (DAEGU-GYEONGBUK MEDICAL INNOVATION FOUNDATION, priority 2020, dated 2026)

Experiments:
Assay in all cases: scanMAX Kinase panel (DiscoverX)
Assay type in all cases: binding
[1] = target: T1, EPHA4 (Homo sapiens, UniProt P54764); details: read-out: % Cont @ 1 uM
T1 construct: purchased DiscoverX scanMAX Kinase panel
Procedure, shortened: (§1)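 % ctrl @ 1 μM (DMSO stock vehicle); normalisation: positive control set to 0, negative control to 100.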

[2] = target: T2, FLT3(R834Q) (Homo sapiens, UniProt P36888, R834Q); details: read-out: % Cont @ 1 uM
T2 construct: purchased DiscoverX scanMAX Kinase panel
Procedure, shortened: as §1

[3] = target: T3, RET(M918T) (Homo sapiens, UniProt P07949, M918T); details: read-out: % Cont @ 1 uM
T3 construct: purchased DiscoverX scanMAX Kinase panel
Procedure, shortened: as §1

[4] = target: T4, TIE2 (Homo sapiens, UniProt Q02763); details: read-out: % Cont @ 1 uM
T4 construct: purchased DiscoverX scanMAX Kinase panel
Procedure, shortened: as §1

[5] = target: T5, TRKA (Homo sapiens, UniProt P04629); details: read-out: % Cont @ 1 uM
T5 construct: purchased DiscoverX scanMAX Kinase panel
Procedure, shortened: as §1

[6] = target: T6, LOK (Homo sapiens, UniProt O94804)
T6 construct: purchased DiscoverX scanMAX Kinase panel
Procedure, shortened: as §1

[7] = target: T7, PFTAIRE2 (Homo sapiens, UniProt Q96Q40); details: read-out: % Cont @ 1 uM
T7 construct: purchased DiscoverX scanMAX Kinase panel
Procedure, shortened: as §1

[8] = target: T8, NEK1 (Homo sapiens, UniProt Q96PY6); details: read-out: % Cont @ 1 uM
T8 construct: purchased DiscoverX scanMAX Kinase panel
Procedure, shortened: as §1

[9] = target: T9, MAP4K4 (Homo sapiens, UniProt O95819); details: read-out: % Cont @ 1 uM
T9 construct: purchased DiscoverX scanMAX Kinase panel
Procedure, shortened: as §1

[10] = target: T10, LCK (Homo sapiens, UniProt P06239); details: read-out: % Cont @ 1 uM
T10 construct: purchased DiscoverX scanMAX Kinase panel
Procedure, shortened: as §1

[11] = target: T11, ABL1(M351T)-phosphorylated (Homo sapiens, UniProt P00519, M351T); details: read-out: % Cont @ 1 uM
T11 construct: purchased DiscoverX
Procedure, shortened: as §1

[12] = target: T12, p38-beta (Homo sapiens, UniProt Q15759); details: read-out: % Cont @ 1 uM
T12 construct: purchased DiscoverX scanMAX Kinase panel
Procedure, shortened: as §1

[13] = target: T13, MINK (Homo sapiens, UniProt Q8N4C8); details: read-out: % Cont @ 1 uM
T13 construct: purchased DiscoverX scanMAX Kinase panel
Procedure, shortened: as §1

[14] = target: T14, ABL1(E255K)-phosphorylated (Homo sapiens, UniProt P00519, E255K); details: read-out: % Cont @ 1 uM
T14 construct: purchased DiscoverX
Procedure, shortened: as §1

[15] = target: T15, EGFR (Homo sapiens, UniProt P00533)
T15 construct: purchased DiscoverX scanMAX Kinase panel
Procedure, shortened: as §1

[16] = target: T16, FER (Homo sapiens, UniProt P16591); details: read-out: % Cont @ 1 uM
T16 construct: purchased DiscoverX scanMAX Kinase panel
Procedure, shortened: as §1

[17] = target: T17, TAOK3 (Homo sapiens, UniProt Q9H2K8); details: read-out: % Cont @ 1 uM
T17 construct: purchased DiscoverX scanMAX Kinase panel
Procedure, shortened: as §1

[18] = target: T18, FES (Homo sapiens, UniProt P07332); details: read-out: % Cont @ 1 uM
T18 construct: purchased DiscoverX scanMAX Kinase panel
Procedure, shortened: as §1

[19] = target: T19, EGFR(E746-A750del) (Homo sapiens, UniProt P00533, DEL746-750)
T19 construct: purchased DiscoverX scanMAX Kinase panel
Procedure, shortened: as §1

[20] = target: T20, EGFR(L747-S752del, P753S) (Homo sapiens, UniProt P00533, DEL747-752/P753S)
T20 construct: purchased DiscoverX scanMAX Kinase panel
Procedure, shortened: as §1

[21] = target: T21, EPHB2 (Homo sapiens, UniProt P29323)
T21 construct: purchased DiscoverX scanMAX Kinase panel
Procedure, shortened: as §1

[22] = target: T22, STK35 (Homo sapiens, UniProt Q8TDR2); details: read-out: % Cont @ 1 uM
T22 construct: purchased DiscoverX scanMAX Kinase panel
Procedure, shortened: as §1

[23] = target: T23, BRAF(V600E) (Homo sapiens, UniProt P15056, V600E); details: read-out: % Cont @ 1 uM
T23 construct: purchased DiscoverX scanMAX Kinase panel
Procedure, shortened: as §1

[24] = target: T24, FRK (Homo sapiens, UniProt P42685); details: read-out: % Cont @ 1 uM
T24 construct: purchased DiscoverX scanMAX Kinase panel
Procedure, shortened: as §1

[25] = target: T25, FGFR2 (Homo sapiens, UniProt P21802); details: read-out: % Cont @ 1 uM
T25 construct: purchased DiscoverX scanMAX Kinase panel
Procedure, shortened: as §1

[26] = target: T26, FGFR4 (Homo sapiens, UniProt P22455); details: read-out: % Cont @ 1 uM
T26 construct: purchased DiscoverX scanMAX Kinase panel
Procedure, shortened: as §1

[27] = target: T27, AXL (Homo sapiens, UniProt P30530); details: read-out: % Cont @ 1 uM
T27 construct: purchased DiscoverX scanMAX Kinase panel
Procedure, shortened: as §1

[28] = target: T28, p38-gamma (Homo sapiens, UniProt P53778); details: read-out: % Cont @ 1 uM
T28 construct: purchased DiscoverX scanMAX Kinase panel
Procedure, shortened: as §1

[29] = target: T29, HCK (Homo sapiens, UniProt P08631); details: read-out: % Cont @ 1 uM
T29 construct: purchased DiscoverX scanMAX Kinase panel
Procedure, shortened: as §1

[30] = target: T30, GAK (Homo sapiens, UniProt O14976); details: read-out: % Cont @ 1 uM
T30 construct: purchased DiscoverX scanMAX Kinase panel
Procedure, shortened: as §1

[31] = target: T31, EPHB6 (Homo sapiens, UniProt O15197); details: read-out: % Cont @ 1 uM
T31 construct: purchased DiscoverX scanMAX Kinase panel
Procedure, shortened: as §1

[32] = target: T32, MAP4K3 (Homo sapiens, UniProt Q8IVH8)
T32 construct: purchased DiscoverX scanMAX Kinase panel
Procedure, shortened: as §1

[33] = target: T33, BRK (Homo sapiens, UniProt Q13882); details: read-out: % Cont @ 1 uM
T33 construct: purchased DiscoverX scanMAX Kinase panel
Procedure, shortened: as §1

[34] = target: T34, PCTK2 (Homo sapiens, UniProt Q00537); details: read-out: % Cont @ 1 uM
T34 construct: purchased DiscoverX scanMAX Kinase panel
Procedure, shortened: as §1

[35] = target: T35, JNK2 (Homo sapiens, UniProt P45984)
T35 construct: purchased DiscoverX scanMAX Kinase panel
Procedure, shortened: as §1

[36] = target: T36, MLK3 (Homo sapiens, UniProt Q16584)
T36 construct: purchased DiscoverX scanMAX Kinase panel
Procedure, shortened: as §1

[37] = target: T37, YSK4 (Homo sapiens, UniProt Q56UN5); details: read-out: % Cont @ 1 uM
T37 construct: purchased DiscoverX scanMAX Kinase panel
Procedure, shortened: as §1

[38] = target: T38, FGFR1 (Homo sapiens, UniProt P11362); details: read-out: % Cont @ 1 uM
T38 construct: purchased DiscoverX scanMAX Kinase panel
Procedure, shortened: as §1

[39] = target: T39, LTK (Homo sapiens, UniProt P29376); details: read-out: % Cont @ 1 uM
T39 construct: purchased DiscoverX scanMAX Kinase panel
Procedure, shortened: as §1

T4 sequence (Q02763 23-1124): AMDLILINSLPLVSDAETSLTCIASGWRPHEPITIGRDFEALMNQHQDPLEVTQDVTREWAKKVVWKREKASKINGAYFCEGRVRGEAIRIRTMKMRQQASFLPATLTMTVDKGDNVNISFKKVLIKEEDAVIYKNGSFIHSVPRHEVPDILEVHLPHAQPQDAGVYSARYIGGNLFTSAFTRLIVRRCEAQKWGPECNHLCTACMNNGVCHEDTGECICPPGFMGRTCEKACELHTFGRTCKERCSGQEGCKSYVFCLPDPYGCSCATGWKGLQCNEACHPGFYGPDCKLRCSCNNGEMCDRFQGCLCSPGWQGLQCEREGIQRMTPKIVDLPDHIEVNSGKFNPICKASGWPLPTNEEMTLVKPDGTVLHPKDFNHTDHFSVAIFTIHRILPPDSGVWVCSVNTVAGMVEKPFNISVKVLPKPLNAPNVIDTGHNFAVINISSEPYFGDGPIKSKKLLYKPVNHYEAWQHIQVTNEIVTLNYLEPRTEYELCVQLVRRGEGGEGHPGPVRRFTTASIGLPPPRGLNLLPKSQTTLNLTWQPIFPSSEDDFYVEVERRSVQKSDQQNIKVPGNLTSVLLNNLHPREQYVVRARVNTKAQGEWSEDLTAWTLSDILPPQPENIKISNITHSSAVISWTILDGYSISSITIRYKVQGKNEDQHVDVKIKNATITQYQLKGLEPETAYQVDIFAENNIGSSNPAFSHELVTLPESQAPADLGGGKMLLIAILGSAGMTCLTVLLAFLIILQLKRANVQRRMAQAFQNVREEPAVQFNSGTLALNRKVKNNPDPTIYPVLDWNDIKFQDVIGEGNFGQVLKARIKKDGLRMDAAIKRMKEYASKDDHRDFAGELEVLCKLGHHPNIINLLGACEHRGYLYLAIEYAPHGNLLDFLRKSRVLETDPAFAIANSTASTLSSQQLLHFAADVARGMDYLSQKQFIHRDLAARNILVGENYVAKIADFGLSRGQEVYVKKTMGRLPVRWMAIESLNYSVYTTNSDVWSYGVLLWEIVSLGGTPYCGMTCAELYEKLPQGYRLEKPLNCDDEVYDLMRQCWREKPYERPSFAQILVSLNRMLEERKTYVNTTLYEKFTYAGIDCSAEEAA
T17 sequence (Q9H2K8 whole entry): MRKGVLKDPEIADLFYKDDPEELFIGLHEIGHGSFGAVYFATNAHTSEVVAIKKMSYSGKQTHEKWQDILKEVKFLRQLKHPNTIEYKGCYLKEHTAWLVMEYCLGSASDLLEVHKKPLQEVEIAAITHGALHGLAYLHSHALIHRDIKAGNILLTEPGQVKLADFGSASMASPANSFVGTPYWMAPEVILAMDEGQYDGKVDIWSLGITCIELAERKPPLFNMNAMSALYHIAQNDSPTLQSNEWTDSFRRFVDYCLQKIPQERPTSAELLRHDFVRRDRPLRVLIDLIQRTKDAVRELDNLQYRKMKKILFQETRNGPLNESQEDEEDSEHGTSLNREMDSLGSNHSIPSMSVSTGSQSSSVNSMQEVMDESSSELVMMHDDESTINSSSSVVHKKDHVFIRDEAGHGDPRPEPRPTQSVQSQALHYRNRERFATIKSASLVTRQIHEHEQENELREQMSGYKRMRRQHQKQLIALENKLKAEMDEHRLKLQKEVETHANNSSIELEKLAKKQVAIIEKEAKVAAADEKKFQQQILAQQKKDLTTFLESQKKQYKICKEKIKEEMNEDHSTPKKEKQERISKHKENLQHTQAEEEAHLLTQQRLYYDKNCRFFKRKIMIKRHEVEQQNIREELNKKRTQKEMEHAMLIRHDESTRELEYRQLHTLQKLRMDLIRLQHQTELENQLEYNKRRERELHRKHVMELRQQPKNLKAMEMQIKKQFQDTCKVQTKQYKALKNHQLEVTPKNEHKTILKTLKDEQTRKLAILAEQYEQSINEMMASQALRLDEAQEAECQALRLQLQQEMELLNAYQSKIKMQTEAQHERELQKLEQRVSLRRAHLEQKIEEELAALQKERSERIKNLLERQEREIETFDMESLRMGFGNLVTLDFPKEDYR
T30 sequence (O14976 whole entry): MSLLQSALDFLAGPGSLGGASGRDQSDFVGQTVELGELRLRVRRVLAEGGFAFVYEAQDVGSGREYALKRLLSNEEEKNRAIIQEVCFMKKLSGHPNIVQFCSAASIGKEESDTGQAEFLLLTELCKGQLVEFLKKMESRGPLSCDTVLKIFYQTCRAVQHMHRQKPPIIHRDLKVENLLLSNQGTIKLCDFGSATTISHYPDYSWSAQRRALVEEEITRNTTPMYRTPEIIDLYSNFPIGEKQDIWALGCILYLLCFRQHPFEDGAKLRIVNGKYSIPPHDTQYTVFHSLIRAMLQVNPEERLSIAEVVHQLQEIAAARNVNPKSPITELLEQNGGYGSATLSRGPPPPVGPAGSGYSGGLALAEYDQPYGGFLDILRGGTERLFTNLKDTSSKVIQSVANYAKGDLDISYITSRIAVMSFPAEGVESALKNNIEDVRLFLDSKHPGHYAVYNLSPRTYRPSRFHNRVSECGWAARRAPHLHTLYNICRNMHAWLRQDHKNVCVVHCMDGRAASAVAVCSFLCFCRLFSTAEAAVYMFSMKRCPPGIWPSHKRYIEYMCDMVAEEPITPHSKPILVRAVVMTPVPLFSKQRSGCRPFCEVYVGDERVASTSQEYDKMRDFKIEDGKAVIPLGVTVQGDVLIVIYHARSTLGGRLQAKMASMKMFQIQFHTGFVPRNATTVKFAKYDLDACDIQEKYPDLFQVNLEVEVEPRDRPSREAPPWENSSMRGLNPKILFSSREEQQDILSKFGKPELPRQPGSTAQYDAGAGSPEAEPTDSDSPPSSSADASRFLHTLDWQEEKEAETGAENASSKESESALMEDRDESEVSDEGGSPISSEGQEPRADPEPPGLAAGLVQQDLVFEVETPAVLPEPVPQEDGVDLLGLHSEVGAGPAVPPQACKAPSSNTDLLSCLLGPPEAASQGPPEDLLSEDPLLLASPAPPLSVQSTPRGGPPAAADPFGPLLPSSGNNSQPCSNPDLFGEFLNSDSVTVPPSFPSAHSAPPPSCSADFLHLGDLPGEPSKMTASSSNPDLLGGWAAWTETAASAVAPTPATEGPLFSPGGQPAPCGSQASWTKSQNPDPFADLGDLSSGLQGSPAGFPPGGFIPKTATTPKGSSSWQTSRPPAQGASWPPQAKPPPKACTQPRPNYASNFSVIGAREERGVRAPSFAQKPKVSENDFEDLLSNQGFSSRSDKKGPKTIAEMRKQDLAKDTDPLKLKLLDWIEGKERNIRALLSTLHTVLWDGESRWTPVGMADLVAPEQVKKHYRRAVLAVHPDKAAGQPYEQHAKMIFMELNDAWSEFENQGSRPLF
T32 sequence (Q8IVH8 whole entry): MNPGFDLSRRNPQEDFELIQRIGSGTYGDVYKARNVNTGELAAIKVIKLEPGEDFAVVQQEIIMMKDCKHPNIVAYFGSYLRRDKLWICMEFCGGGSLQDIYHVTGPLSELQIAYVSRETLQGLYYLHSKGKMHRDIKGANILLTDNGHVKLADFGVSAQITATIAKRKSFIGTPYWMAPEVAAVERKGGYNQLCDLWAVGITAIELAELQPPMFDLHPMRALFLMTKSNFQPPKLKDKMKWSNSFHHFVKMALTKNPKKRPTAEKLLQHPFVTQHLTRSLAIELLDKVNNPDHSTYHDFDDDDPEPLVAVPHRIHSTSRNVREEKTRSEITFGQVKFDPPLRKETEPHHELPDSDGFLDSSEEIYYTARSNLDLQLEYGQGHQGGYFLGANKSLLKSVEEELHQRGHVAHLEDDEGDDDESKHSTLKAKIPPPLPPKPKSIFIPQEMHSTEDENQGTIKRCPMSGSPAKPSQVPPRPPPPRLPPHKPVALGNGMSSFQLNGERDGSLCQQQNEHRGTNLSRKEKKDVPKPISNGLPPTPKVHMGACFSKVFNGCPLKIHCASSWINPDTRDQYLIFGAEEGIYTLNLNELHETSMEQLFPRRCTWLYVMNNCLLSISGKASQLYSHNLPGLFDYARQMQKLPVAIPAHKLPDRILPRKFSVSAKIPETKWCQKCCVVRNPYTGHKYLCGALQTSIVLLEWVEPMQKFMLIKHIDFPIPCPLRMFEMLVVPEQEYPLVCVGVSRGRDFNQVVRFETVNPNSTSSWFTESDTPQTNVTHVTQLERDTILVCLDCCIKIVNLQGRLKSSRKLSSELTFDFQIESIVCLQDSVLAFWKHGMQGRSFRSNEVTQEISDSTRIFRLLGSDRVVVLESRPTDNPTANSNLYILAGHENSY
T39 sequence (P29376 17-864): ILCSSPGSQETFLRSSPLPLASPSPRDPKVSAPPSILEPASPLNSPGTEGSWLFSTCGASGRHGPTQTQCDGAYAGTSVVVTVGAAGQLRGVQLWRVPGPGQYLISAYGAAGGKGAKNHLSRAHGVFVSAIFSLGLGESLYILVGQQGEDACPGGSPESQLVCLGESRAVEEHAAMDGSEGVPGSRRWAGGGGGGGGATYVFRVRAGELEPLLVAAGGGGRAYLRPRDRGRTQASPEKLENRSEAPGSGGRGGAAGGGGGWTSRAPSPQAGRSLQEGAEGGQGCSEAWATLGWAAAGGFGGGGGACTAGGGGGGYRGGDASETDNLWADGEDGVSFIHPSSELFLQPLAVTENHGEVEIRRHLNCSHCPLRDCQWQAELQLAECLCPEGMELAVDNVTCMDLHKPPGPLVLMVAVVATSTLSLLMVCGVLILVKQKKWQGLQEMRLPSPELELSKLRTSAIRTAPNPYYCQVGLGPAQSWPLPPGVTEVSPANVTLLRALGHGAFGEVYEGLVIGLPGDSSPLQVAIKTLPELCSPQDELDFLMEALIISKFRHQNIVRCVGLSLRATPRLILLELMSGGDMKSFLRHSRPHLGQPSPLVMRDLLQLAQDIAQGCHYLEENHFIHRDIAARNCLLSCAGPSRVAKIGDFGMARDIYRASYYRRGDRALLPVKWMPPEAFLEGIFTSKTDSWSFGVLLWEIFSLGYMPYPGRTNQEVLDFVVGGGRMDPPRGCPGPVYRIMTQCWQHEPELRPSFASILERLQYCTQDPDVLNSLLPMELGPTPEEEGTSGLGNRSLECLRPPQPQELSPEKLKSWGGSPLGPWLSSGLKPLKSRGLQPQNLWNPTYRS

Cc1cn(-c2cc(NC(=O)c3cc(C#Cc4cnc5c(Nc6cnn(C)c6)cccn45)c(C)cc3F)cc(C(C)(C)C#N)c2)cn1 [Example 1, N-(3-(2-cyanopropane-2-yl)-5-(4-methyl-1H-imidazol-1-yl)phenyl)-2-fluoro-4-methyl-5-((8-((1-methyl-1H-pyrazol-4-yl)amino)imidazo[1,2-a]pyridin-3-yl)ethynyl)benzamide]
remaining binding at 1 µM [1]: 26% | remaining binding at 1 µM [2]: 0.9% | remaining binding at 1 µM [3]: 0% | remaining binding at 1 µM [4]: 0.4% | remaining binding at 1 µM [5]: 0.6% | % Cont @ 1 uM [6]: 0.05% | remaining binding at 1 µM [7]: 4.3% | remaining binding at 1 µM [8]: 34% | remaining binding at 1 µM [9]: 0.75% | remaining binding at 1 µM [10]: 0.15% | remaining binding at 1 µM [11]: 0.25% | remaining binding at 1 µM [12]: 0.85% | percent of control binding at 1 µM [13]: 2.4% | remaining binding at 1 µM [14]: 0.9% | % Cont @ 1 uM [15]: 29% | remaining binding at 1 µM [16]: 10% | remaining binding at 1 µM [17]: 1.6% | remaining binding at 1 µM [18]: 1.6% | % Cont @ 1 uM [19]: 0% | % Cont @ 1 uM [20]: 1.3% | % Cont @ 1 uM [21]: 6.3% | remaining binding at 1 µM [22]: 10% | remaining binding at 1 µM [23]: 15% | remaining binding at 1 µM [24]: 1.6% | remaining binding at 1 µM [25]: 30% | remaining binding at 1 µM [26]: 2.8% | remaining binding at 1 µM [27]: 14.4% | remaining binding at 1 µM [28]: 17% | remaining binding at 1 µM [29]: 0.2% | remaining binding at 1 µM [30]: 25% | remaining binding at 1 µM [31]: 0% | % Cont @ 1 uM [32]: 4% | remaining binding at 1 µM [33]: 13% | remaining binding at 1 µM [34]: 23% | % Cont @ 1 uM [35]: 12% | % Cont @ 1 uM [36]: 10% | remaining binding at 1 µM [37]: 0.3% | remaining binding at 1 µM [38]: 1.2% | remaining binding at 1 µM [39]: 3.4%

Cc1cn(-c2cc(NC(=O)c3cc(C#Cc4cnc5c(Nc6cnn(C)c6)cccn45)c(C)cc3F)cc(C(F)(F)F)c2)cn1 [Example 4, 2-fluoro-4-methyl-N-(3-(4-methyl-1H-imidazol-1-yl)-5-(trifluoromethyl)phenyl)-5-((8-((1-methyl-1H-pyrazol-4-yl)amino)imidazo[1,2-a]pyridin-3-yl)ethynyl)benzamide]
remaining binding at 1 µM [1]: 28% | remaining binding at 1 µM [2]: 34% | remaining binding at 1 µM [3]: 0.95% | remaining binding at 1 µM [4]: 0.7% | remaining binding at 1 µM [5]: 2.6% | % Cont @ 1 uM [6]: 0.2% | remaining binding at 1 µM [7]: 76% | remaining binding at 1 µM [8]: 100% | remaining binding at 1 µM [9]: 15% | remaining binding at 1 µM [10]: 0.4% | remaining binding at 1 µM [11]: 10% | remaining binding at 1 µM [12]: 15% | percent of control binding at 1 µM [13]: 88% | remaining binding at 1 µM [14]: 12% | % Cont @ 1 uM [15]: 79% | remaining binding at 1 µM [16]: 71% | remaining binding at 1 µM [17]: 12% | remaining binding at 1 µM [18]: 55% | % Cont @ 1 uM [19]: 56% | % Cont @ 1 uM [20]: 40% | % Cont @ 1 uM [21]: 32% | remaining binding at 1 µM [22]: 94% | remaining binding at 1 µM [23]: 48% | remaining binding at 1 µM [24]: 26% | remaining binding at 1 µM [25]: 61% | remaining binding at 1 µM [26]: 53% | remaining binding at 1 µM [27]: 1.4% | remaining binding at 1 µM [28]: 88% | remaining binding at 1 µM [29]: 0.65% | remaining binding at 1 µM [30]: 80% | remaining binding at 1 µM [31]: 0% | % Cont @ 1 uM [32]: 70% | remaining binding at 1 µM [33]: 78% | remaining binding at 1 µM [34]: 85% | % Cont @ 1 uM [35]: 81% | % Cont @ 1 uM [36]: 57% | remaining binding at 1 µM [37]: 3% | remaining binding at 1 µM [38]: 27% | remaining binding at 1 µM [39]: 8.7%
